Reference: patent US6423699B1, “Combination therapies using benzimidazolones” (American Home Products Corporation, priority 1999, dated 2002)
“And” between values parts separate entries of the source, which are not always exact repeats. Equal entries are not always repeated.

System: rat uterine decidualization
Test: Rat decidualization assay
Type: in vivo
Settings: decidual response; for Estimated average EC50 (mg/kg s.c.): average over dose-response curves; for Estimated EC50 (mg/kg s.c.), individual studies: ovariectomized rats, uterine wet weight
Description: 2. Rat Decidualization Assay
b. Animals (RACUC protocol #5002)
The animals are treated once daily for seven days.
Uteri are removed and trimmed of fat.
Body weight: Mean total animal body weight (default-kg)
Decidual response: [(D−C)/C]×100%

`C#C[C@]1(O)CC[C@H]2[C@@H]3CCC4=CC(=O)CC[C@@H]4[C@H]3C(=C)C[C@@]21CC` [3-Ketodesogestrel] was tested, and the “Estimated average EC50 (mg/kg s.c.)” value was 0.10 mg/kg s.c and the “Estimated EC50 (mg/kg s.c.), individual studies” value (shortened to “Estimated EC50”) was 0.10 mg/kg s.c. and 0.06 mg/kg s.c. and 0.11 mg/kg s.c.
`C#C[C@]1(O)CC[C@H]2[C@@H]3CCC4=CC(=O)CC[C@@H]4[C@H]3CC[C@@]21CC` [Levonorgestrel] was tested, and the “Estimated average EC50 (mg/kg s.c.)” value was 0.10 mg/kg s.c and the “Estimated EC50” value was 0.08 mg/kg s.c. and 0.12 mg/kg s.c. and 0.09 mg/kg s.c. (2×).
With `CC(=O)O[C@]1(C(C)=O)CC[C@H]2[C@@H]3C[C@H](C)C4=CC(=O)CC[C@]4(C)[C@H]3CC[C@@]21C` [MPA, medroxyprogesterone acetate] the “Estimated EC50” value was 0.42 mg/kg s.c. and 0.39 mg/kg s.c. (2×).
For `CC(=O)[C@H]1CC[C@H]2[C@@H]3CCC4=CC(=O)CC[C@]4(C)[C@H]3CC[C@]12C` [Progesterone], the “Estimated average EC50 (mg/kg s.c.)” value was 5.62 mg/kg s.c and the “Estimated EC50” value was 5.50 mg/kg s.c.
